Patent US20240139185A1, “COMPOUNDS THAT PARTICIPATE IN COOPERATIVE BINDING AND USES THEREOF” (Revolution Medicines, Inc., priority 2018, published 2024)
Where two headings read alike, the source gives them in different places. Marks after values point to notes of the source that are not given here.

Key:
[1] = 18-membered ring
BRAF-GTP-KRASWT complex = target: T1, BRAF-GTP-KRASWT complex (Homo sapiens, UniProt P01116+P62937); test: KRAS-BRAF complex disruption TR-FRET with wild-type KRAS (G12C specificity); format: biochemical; conditions: with CYPA
T1 construct: substitute His6-KRas WT-GTP (1-169) for His6-KRas G12C-GTP (1-169); 500 nM of tagless CypA (1-165)
Protocol: (§1) In this example, TR-FRET was used to measure the compound-facilitated disruption of a KRAS-BRAF complex. A mixture of tagless Cyclophilin A, His6-KRAS G12C-GMP-PNP, and GST-BRAF RAS binding domain was added to a 384-well assay plate containing compounds of the invention and incubated for 3 hours. A mixture of Anti-His Eu-W1024 and anti-GST allophycocyanin was then added and the reaction was incubated for an additional 1.5 hours. TR-FRET signal was read on an EnVision microplate reader (Perkin Elmer, Ex 320 nm, Em 665/615 nm). Compounds that facilitate disruption of a KRAS_BRAF complex were identified as those eliciting a decrease in the TR-FRET ratio relative to DMSO control wells. To determine the presenter-dependence of the compound-mediated KRAS-BRAF complex disruption, Cyclophilin A was left out of the initial incubation (see Table 5). To determine G12C specificity of the compound-mediated KRAS-BRAF complex disruption, wild-type KRAS was used instead of G12C KRAS (see Table 5).
(§2) Reagents and Instrument • Tagless CYPA; 519 μM in PBS buffer, pH 7.4 • GST BRAF; 110 μM in PBS buffer, pH 7.4 • His6-KRASG12C-GMP-PNP; 50 μM in PBS buffer, pH 7.4 • His6-KRASWT-GMP-PNP; 40 μM in PBS buffer, pH 7.4 • Anti-His Eu-W1024 (LANCE® Eu-W1024; Perkin Elmer) • Anti-GST allophycocyanin (Anti-GST IgG conjugated to SureLight®-Allophycocyanin; Perkin Elmer; Product Number AD0059G) • Test compounds, 10 mM in 100% DMSO • EnVision (Perkin Elmer) • Combi MultiDrop liquid dispenser with 8-channel small volume cassette • 384-well ProxiPlate (black)
(§3) Experimental Protocol • 1. Use Mosquito to dispense 100 nL/well of compounds (varying concentration in […]) into 384-well black ProxiPlate to make assay-ready-plate (ARP). • 2. Make assay buffer containing 25 mM Hepes pH 7.3, 100 mM NaCl, 5 mM MgCl2, 0.05% BSA, and 0.002% Tween-20. • 3. Make PRE-MIX A: delivers final concentrations of 50 nM of His6-KRas G12C-GTP (1-169) and 500 nM of tagless CypA (1-165) in assay buffer. • a. […] Read on EnVision (Ex: 320 nm; Em1: 615 nm; Em2: 665 nm). • 8. […]

[2] = target: T2, BRAF-GTP-KRAS-G12C complex (Homo sapiens, UniProt P01116, G12C); test: KRAS-BRAF complex disruption TR-FRET without CYPA (presenter dependence); format: biochemical
T2 construct: 50 nM of His6-KRas G12C-GTP (1-169)
Protocol: as §1, §2, §3

KRAS-G12C = target: T3, KRAS-G12C (Homo sapiens, UniProt P01116+P62937, G12C); test: Percentage of crosslinking to KRAS-G12C in the presence of BME and CYPA (TOF-MS); format: biochemical; conditions: 60 minute incubation; compound 2 μM, CypA 5 μM, G12C-GMPNP 0.5 μM, BME
T3 construct: CypA 1-165 (final concentration 5 μM)
Protocol: • 1. 10×Incubation buffer: 125 mM HEPES pH 7.4, 750 mM NaCl, 10 mM MgCl2 • 2. 50 μM Protein A stock (CypA) in incubation buffer • 3. 5 μM Protein B (G12C-GMPNP) stock in incubation buffer • 4. 20 μM compound stock in 1×Incubation buffer with 10% DMSO • 5. 25 mM BME stock solution (prepared by diluting the BME stock in Milli Q water)
CypA 1-165 (final concentration 5 μM), test compound (final concentration 2 μM) and G12C-GMPNP (final concentration 0.5 μM) were incubated in the incubation buffer ([…]) for the requisite amount of time at room temperature. The samples were quenched with formic acid, final concentration 0.5%. 10 μL aliquots were injected to TOF-MS.
Sequence of Addition for a Final Incubation Volume of 50 μL • 1. 5 μL 10×incubation buffer • 2. 28 ul H2O • 3. 2 μL from 25 mM BME stock • 4. 5 μL CypA at 50 uM • 5. 5 μL from 5 μM G12C-GMPNP • 6. 5 μL compound from 20 μM compound stock
LC-MS is performed on an Agilent 6230 TOF-LC mass spectrometer equipped with an electrospray probe operated in positive ionization mode. 10 μL samples are injected on a Sepax Bio-C4, 300 Å, 2.1×100 mm column. The mobile phase is 0.1% (vol/vol) formic acid and 0.1% 1 mM ammonium formate in 95% water, 4.8% acetonitrile (A) and 0.1% (vol/vol) formic acid and 0.1% 1 mM ammonium formate in 95% acetonitrile and 4.8% water (B). The separation is performed by a 9 min total gradient consisting of 5 min linear gradient from 25% to 50% B, and a wash at 100% B for 1.25 min, all at a flow rate of 0.6 mL/min (see attached timetable below). Mass spectrometer source conditions were capillary voltage, 4,000 V; cone voltage, 120 V; source temperature, 275° C.; scan range, 100-2,000 a.m.u. with a cycle time of 1 s.
The observed mass is generated by averaging the major peak in the total ion current (TIC). The charge-state series of the species are deconvoluted using Agilent MassHunter Bioconfirm using maximum entropy setting (range is set to 17000-23000 Da). […]

cyclophilin A (CYPA) = cyclophilin A (CYPA) (Homo sapiens, UniProt P62937); test: CYPA-compound binary complex formation by SPR; conditions: read-out: CYPA Binding Affinity
Method in brief: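 CypA-Avi captured on a Biotin CAPture chip (4 μg/ml), reference flow cell subtracted. Compounds injected as 10-point 2-fold dilutions from 50 μM in HBS-P+ pH7.4 with 2% DMSO; 60 s association and 60 s dissociation, solvent-corrected. Affinity obtained by steady-state fitting.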

[3] = target: T4, BRAF-GTP-KRAS-G12C complex (Homo sapiens, UniProt P01116+P62937, G12C); test: KRAS-BRAF complex disruption through competition with CYPA-compound by TR-FRET; conditions: biochemical BRAF-KRAS G12C-GTP disruption assay EC50, with CYPA
T4 construct: 50 nM of His6-KRas G12C-GTP (1-169); 500 nM of tagless CypA (1-165)
Method in brief: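 His6-KRAS G12C-GTP (1-169, 50 nM) with tagless CypA (1-165, 500 nM) was incubated with compound for 3 h at room temperature in pH 7.3 Hepes/NaCl/MgCl2 buffer containing GST-BRAF RBD. Anti-His Eu (10 nM) and anti-GST APC (50 nM) were then added for 1.5 h, and the 665/615 nm TR-FRET ratio was read. EC50 from 4-parameter fit; for specificity, wild-type KRAS replaced G12C, and CypA was omitted to test presenter dependence.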

pERK in H358 cells = test: pERK inhibition in H358 cells; format: cell-based, human; conditions: 4 hours treatment, read-out: Cellular pERK inhibition
Method in brief: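 Human lung cancer H358 cells in RPMI/10% FBS were exposed to compound or DMSO for 4 h. Fixed and permeabilized cells were stained overnight at 4 C with anti-phospho-ERK1/2 (Thr202/Tyr204). Near-infrared imaging read the pERK signal at 800 nm, with DRAQ5 at 700 nm.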

Compound	Kd (cyclophilin A (CYPA)) [µM]	EC50 [3] [µM]	IC50 (pERK in H358 cells) [µM]	also measured
CC(C)[Si](Oc1cc2cc(c1)-c1ccc3c(Br)cn(c3c1)C[C@H](C)COC(=O)[C@@H]1CCCN(N1)C(=O)[C@@H](NC(=O)OC(C)(C)C)C2)(C(C)C)C(C)C	–	–	–	ring closure, isolated yield ([1]; from CC(C)[Si](Oc1cc(C[C@H](NC(=O)OC(C)(C)C)C(=O)N2CCC[C@@H](C(=O)O)N2)cc(-c2ccc3c(Br)cn(C[C@H](C)CO)c3c2)c1)(C(C)C)C(C)C, ester bond, EDCI/HOBt/DIEA, DCM, 122.5 mM, 25.0 °C, 16.0 h): 59%
CC(C)[Si](Oc1cc2cc(c1)-c1ccc3c(C#N)cn(c3c1)CC(C)(C)CNC(=O)[C@@H]1CCCN(N1)C(=O)[C@@H](NC(=O)OC(C)(C)C)C2)(C(C)C)C(C)C	–	–	–	ring closure, isolated yield ([1]; from CC(C)[Si](Oc1cc(C[C@H](NC(=O)OC(C)(C)C)C(=O)N2CCC[C@@H](C(=O)NCC(C)(C)Cn3cc(C#N)c4ccc(Br)cc43)N2)cc(B2OC(C)(C)C(C)(C)O2)c1)(C(C)C)C(C)C, cc_pd bond, Pd(dppf)Cl2.CH2Cl2/K2CO3, dioxane/H2O 5:1, 22.9 mM, 80.0 °C, 2.0 h): 53%

More lines, main results first:

Kd (cyclophilin A (CYPA)) [µM]	EC50 [3] [µM]	IC50 (pERK in H358 cells) [µM]	Compound	also measured
≤ 5	0.5 to 5	–	CC(C)[C@@H](C(=O)N[C@H]1Cc2cc(O)cc(c2)-c2ccc3nc(-c4cccnc4)n(c3c2)CCCOC(=O)[C@@H]2CCCN(N2)C1=O)N(C)C(=O)C1CN(C(=O)CCl)C1 [Compound 169]	IC50 (BRAF-GTP-KRASWT complex): > 30 µM; IC50 [2]: > 30 µM; % Crosslinking with KRAS-G12C-GTP in presence of CYPA (KRAS-G12C): 39^‡ %
5 to 15	≤ 0.5	≤ 1	CC1COC(=O)C2CCCN(N2)C(=O)C(NC(=O)C(C(C)C)N(C)C(=O)C2CN(C(=O)CCl)C2)Cc2cc(O)cc(c2)-c2ccc3c(-c4cccc(C#N)c4)cn(c3c2)C1 (stereo not shown) [Compound 46]	–
5 to 15	≤ 0.5	≤ 1	CC(C)[C@@H](C(=O)N[C@H]1Cc2cc(O)cc(c2)-c2ccc3c(C4CC4)cn(c3c2)C[C@H](C)COC(=O)[C@@H]2CCCN(N2)C1=O)N(C)C(=O)C1CN(C(=O)CCl)C1 [Compound 117]	–
